Measured values reported in ChEMBL document CHEMBL1139567, “Synthesis and biological evaluation of sulfonamidooxazoles and beta-keto sulfones: selective inhibitors of 11beta-hydroxysteroid dehydrogenase type I” (Bioorg Med Chem Lett, 2005).

How the values were obtained:
[1] = target: 11-beta-hydroxysteroid dehydrogenase 1 (Homo sapiens, UniProt P28845); assay: Inhibitory concentration against human 11-beta-hydroxysteroid dehydrogenase 1
[2] = target: T1, 11-beta-hydroxysteroid dehydrogenase type 2 (Homo sapiens, UniProt P80365); assay: Inhibitory concentration against human 11-beta-hydroxysteroid dehydrogenase 2
T1 sequence (P80365 whole entry): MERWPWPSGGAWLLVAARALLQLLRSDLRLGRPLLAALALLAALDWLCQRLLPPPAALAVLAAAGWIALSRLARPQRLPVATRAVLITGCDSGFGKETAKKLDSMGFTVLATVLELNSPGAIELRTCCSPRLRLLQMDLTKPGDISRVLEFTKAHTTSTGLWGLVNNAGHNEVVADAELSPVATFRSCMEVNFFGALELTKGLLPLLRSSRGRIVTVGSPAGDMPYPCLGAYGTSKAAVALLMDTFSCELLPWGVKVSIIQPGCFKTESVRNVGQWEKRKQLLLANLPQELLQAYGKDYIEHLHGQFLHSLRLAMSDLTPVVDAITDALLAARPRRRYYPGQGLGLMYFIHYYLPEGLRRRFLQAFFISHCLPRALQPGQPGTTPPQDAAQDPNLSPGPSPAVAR

Chain of 11-beta-hydroxysteroid dehydrogenase 1 (P28845 whole entry): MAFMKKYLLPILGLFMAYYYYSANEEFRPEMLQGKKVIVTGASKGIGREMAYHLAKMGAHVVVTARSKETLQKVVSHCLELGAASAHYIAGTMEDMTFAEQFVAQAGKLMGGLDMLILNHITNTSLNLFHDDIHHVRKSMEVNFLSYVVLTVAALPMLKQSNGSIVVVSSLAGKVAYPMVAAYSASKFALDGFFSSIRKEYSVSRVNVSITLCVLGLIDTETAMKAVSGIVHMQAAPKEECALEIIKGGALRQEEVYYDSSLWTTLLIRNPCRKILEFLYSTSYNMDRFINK

| IC50 [1] [µM] | IC50 [2] [µM] | SMILES |
| --- | --- | --- |
| > 100 |  | COC(=O)Cc1c(Cl)cccc1S(=O)(=O)Nc1nc(C)co1 |
| 58.7 |  | Cc1coc(NS(=O)(=O)c2cccc(Cl)c2C)n1 |
| 48 | > 200 | Cc1c(Cl)cccc1S(=O)(=O)Nc1nc(-c2ccc(C#N)cc2)co1 |
| 2.3 | > 200 | O=S(=O)(Nc1nc(-c2ccc(-c3ccccc3)cc2)co1)c1ccccc1 |
| 1.5 | > 200 | CCN(CC)C(=O)Cc1csc(NS(=O)(=O)c2cccc(Cl)c2C)n1 |
| > 100 |  | Cc1coc(NS(=O)(=O)c2cccc(Cl)c2CC(=O)O)n1 |
| 17.3 | > 200 | Cc1c(Cl)cccc1S(=O)(=O)Nc1nc(-c2ccccc2)co1 |
| 100 | > 200 | CC(=O)N(C)c1ccc(S(=O)(=O)Nc2nc(C)c(C)o2)cc1 |
| 9 | > 200 | O=S(=O)(Nc1nc(-c2ccc(C(F)(F)F)cc2)co1)c1ccccc1 |
| 23 | > 200 | O=S(=O)(Nc1nc(-c2ccccc2)co1)c1ccccc1 |

| SMILES | IC50 [1] [µM] | IC50 [2] [µM] |
| --- | --- | --- |
| O=C(CS(=O)(=O)c1ccccc1)c1ccc(C(F)(F)F)cc1 | 0.19 | > 200 |
